# “Also recorded” adds a separate entry of the source.
# Test system: IL-33-induced airway inflammation
# Assay: IL-33-induced airway inflammation, intranasal co-administration of CGRP
# Assay type: in vivo, mouse
# Description: Mice and in vivo ILC activation. C57B1/6J mice were purchased from the Jackson Laboratory. Nmur1-LacZ reporter mice with a LacZ cassette knocked into the Nmur1 locus were rederived from Nmur1^tm1.1(KOMP)Vlcg sperm obtained from the trans-NIH Knock-Out Mouse Project (KOMP) Repository. NMU-deficient mice (NMU-KO) were rederived from B6.129S2-Nmu<tm1Mko> embryos from the RIKEN BioResource Center. For experiments with Nmur1-LacZ (Nmur1-KO) and NMU-KO mice, littermates that were either homozygous or heterozygous for the wild type allele were used as controls. Mice were housed under specific-pathogen-free conditions. For experiments, mice were matched for sex and age, and most mice were 6-10 weeks old. Where indicated, mice were anesthetized with Isoflurane and treated intranasally with the indicated stimuli (500 ng IL-25, 500 ng IL-33, or 20 μg Neuromedin U) daily for three consecutive days. The total administered volume was 20 μl for all conditions. Mice were randomly assigned to treatment groups after matching for sex and age. […] Mice were treated intranasally with 10 μg HDM on day 0, 7, 8, and 9, prior to sacrifice on day 10. All experiments were conducted in accordance with animal protocols approved by the Harvard Medical Area Standing Committee on Animals or BWH IACUC.
# Lung analysis. Mice were sacrificed and perfused with cold PBS. Where indicated, after perfusion, broncho-alveolar lavage (BAL) was obtained by injecting 1.5 ml cold PBS into the lungs via a secured tracheal cannula. BALF was centrifuged, and the supernatant was used for analyzing cytokine levels and the cell pellet was resuspended, counted, and used for flow cytometry. Following BAL, lung lobes were dissected. The post-caval lobe was fixed in buffered formalin for histological analysis. Single cell suspensions of the remaining lung parenchymal tissue were prepared with the GentleMACS lung dissociation kit (Miltenyi Biotec) according to the manufacturer's instructions. Where indicated, cells were diluted in 10% Trypan Blue and viable cells counted using a hemocytometer.
# Histology. Following paraffin embedding, sections of the formalin-fixed lung lobe were stained by H&E staining. Tissue sections were scored by a histopathologist in a blinded manner for severity of lung inflammation according to the following scoring system: 0=normal, 1=very mild, 2=mild, 3=moderate or 4=severe.
# Methacholine challenge. Airway hyperresponsiveness was determined as previously described (Talbot, S. et al. Silencing Nociceptor Neurons Reduces Allergic Airway Inflammation. Neuron 87, 341-354, doi:10.1016/j.neuron.2015.06.007 (2015)) using a flexiVent rodent ventilator (SciReq).
# Cytokine-induced airway inflammation. Mice received nasally 500 ng IL-25, 500 ng IL-33, 20 ug NMU or 6.65 ug CGRP diluted in DPBS for three consecutive days. For nasal administration, mice were lightly anesthetized with Isoflurane (Cat #07-893-1389; Patterson Veterinary). For induction of inflammatory ILC2s, mice received intraperitoneally 500 ng IL-25 for three consecutive days. One day after the last treatment, mice were euthanized and perfused with 8 ml cold PBS via the right heart ventricle. After exposure of the trachea, a small incision was made at the top of the trachea and a curved gavage needle was inserted. Lungs were washed with 1.5 ml cold PBS via the needle and the retrieved bronchoalveolar lavage fluid was centrifuged at 1300 rpm for 5 min at 4 C. After centrifugation, the supernatant was frozen at −20° C. and the cell pellet was resuspended in 250 ul complete medium and stored on ice until flow cytometric analysis. The post-caval lung lobe was transferred into 10% buffered formalin and stored at room temperature until paraffin embedding for histological analysis. […]
# [1] = IL-33+CGRP vs IL-33 alone, intranasal, three consecutive days
substance,measurement,setting,value
"CGRP: neuropeptide calcitonin gene-related peptide (encoded by Calca), ligand of the Ramp1/Calcrl receptor; given at 100 nM in vitro, 6.65 ug nasally",lung histology (H&E),CGRP alone vs PBS-treated control mice,histologically identical
same,frequency or total number of lung-resident ILCs,CGRP alone vs PBS-treated mice,did not alter
same,"IL-33-induced perivascular and peribronchial lymphocytic infiltrates in lung sections (H&E, blinded score)",IL-33+CGRP vs IL-33 alone,markedly inhibited
same,"airway hyperreactivity (airway resistance, methacholine challenge)",IL-33+CGRP vs IL-33 alone,less airway hyperreactivity
same,frequency of IL-5- and IL-13-positive ILCs,IL-33+CGRP vs IL-33 alone,significantly reduced
same,frequency of Ki67+ lung ILCs,IL-33+CGRP vs IL-33 alone,decreased frequencies
same,lung ILC frequencies and numbers,IL-33+CGRP vs IL-33 alone,significantly reduced
same,IL-5 and IL-13 protein in BALF (lung homogenates and BALF),[1],lower; also recorded: reduced; also recorded: greatly diminished
same,eosinophil frequency in lungs and BALF,[1],significantly reduced; also recorded: significantly decreased
same,eosinophil numbers in lung (lung and BALF),[1],significantly reduced; also recorded: significantly decreased
same,Il5 and Il13 RNA expression in lung tissue (qPCR),"IL-33+CGRP vs IL-33 alone, intranasal, three consecutive days, analysed one day later",significantly reduced
